Reference: ChEMBL document CHEMBL1150887, “Isolation, identification, and antioxidant activity of three stilbene glucosides newly extracted from vitis vinifera cell cultures” (J Nat Prod, 1998)

Legend:
[1] = Antioxidant activity against cupric ion-induced lipid peroxidation in human LDL by TBA assay; format: functional
[2] = system: Radical scavenging activity; assay: Antioxidant activity assessed as DPPH radical scavenging activity; format: functional

Compound	IC50 [1]	IC50 [2]
Cc1c(C)c2c(c(C)c1O)CCC(C)(C(=O)O)O2 (stereo not given) [TROLOX]	4.7 µM	10.1 µM
OC[C@H]1O[C@@H](Oc2ccc(/C=C/c3cc(O)cc(O)c3)cc2O)[C@H](O)[C@@H](O)[C@@H]1O [E-RESVERATROLOSIDE]	100 µM	1000 µM
OC[C@H]1O[C@@H](Oc2cc(O)cc(/C=C\c3ccc(O)cc3)c2)[C@H](O)[C@@H](O)[C@@H]1O [Z-PICEID]	16.8 µM	142 µM
OC[C@H]1O[C@@H](Oc2cc(O)cc(/C=C/c3ccc(O)cc3)c2)[C@H](O)[C@@H](O)[C@@H]1O [PICEID]	19.1 µM	198 µM
Oc1ccc(/C=C\c2cc(O)cc(O)c2)cc1 [CIS-RESVERATROL]	18 µM	95 µM
OC[C@H]1O[C@@H](Oc2ccc(/C=C\c3cc(O)cc(O)c3)cc2O)[C@H](O)[C@@H](O)[C@@H]1O [Z-RESVERATROLOSIDE]	150 µM	> 1000 µM
OC[C@H]1O[C@@H](Oc2cc(O)cc(/C=C/c3ccc(O)c(O)c3)c2)[C@H](O)[C@@H](O)[C@@H]1O	3 µM	30.2 µM

These reach a lower IC50 [1]. Values come first.

IC50 [1]	IC50 [2]	Compound
1.8 µM	28 µM	Oc1cc(O)cc(/C=C/c2ccc(O)c(O)c2)c1 [PICEATANNOL]
2.4 µM	72 µM	Oc1ccc(/C=C/c2cc(O)cc(O)c2)cc1 [RESVERATROL]
2.5 µM	29 µM	OC[C@H]1O[C@@H](Oc2cc(O)cc(/C=C\c3ccc(O)c(O)c3)c2)[C@H](O)[C@@H](O)[C@@H]1O [Z-ASTRINGIN]
